# Measurements: US20160095925A1 (CADILA HEALTHCARE LIMITED, priority 2014, published 2016)
# Read-outs that look alike come from different tables or passages of the source.
# Experiments:
# [1] = cited from earlier work
# [2] = formation of RGU increased in acidic and basic conditions; cited from earlier work
# [3] = Analytical results of Azacitidine (API), untreated and gamma radiated: description, related substances; format: physicochemical
smiles,measurement,setting,value
"Nc1ncn([C@@H]2O[C@H](CO)[C@@H](O)[C@H]2O)c(=O)n1 [Azacitidine, 4-amino-1-β-D-ribofuranosyl-1,3,5-triazin-2(1H)-one]",Solubility,[1]; 5% Tween 80 in water,sparingly soluble
same,Solubility,[1]; 5% dextrose in water,sparingly soluble
same,Solubility,[1]; N-methyl-2-pyrrolidone,sparingly soluble
same,Solubility,[1]; acetone,insoluble
same,Solubility,[1]; dimethylsulfoxide (DMSO),soluble
same,Solubility,[1]; ethanol/water (50/50),slightly soluble
same,Solubility,[1]; ethanol,insoluble
same,Solubility,[1]; methyl ethyl ketone,insoluble
same,Solubility,[1]; normal saline,sparingly soluble
same,Solubility,[1]; polyethylene glycol,slightly soluble
same,Solubility,[1]; propylene glycol,slightly soluble
same,Solubility,[1]; water saturated octanol,sparingly soluble
same,Solubility,[1]; water,sparingly soluble
same,Optimal pH for stable formulation,[2],6-7
same,Description,[3]; gamma radiated,White to off
same,Related Substances: Single max. impurity,[3]; gamma radiated,0.05%
same,Related Substances: Total impurities,[3]; gamma radiated,0.24%
same,Description,[3]; untreated,White to off
same,Related Substances: Single max. impurity,[3]; untreated,0.04%
same,Related Substances: Total impurities,[3]; untreated,0.19%
